According to patent US11230526B1, “Cylcoalkenyl derivatives useful as agonists of the GPR120 and/or GPR40 receptors” (Janssen Pharmaceutica NV, priority 2018, dated 2022):

How the values were obtained:
Human GPR120 short form = target: T1, Human GPR120 short form (Homo sapiens, UniProt Q5NUL3); assay: Human GPR120 calcium flux assay, Procedure Calcium B (4200 cells/well); format: cell-based
T1 construct: expressed in transfected cells
T1 sequence (Q5NUL3 1-361): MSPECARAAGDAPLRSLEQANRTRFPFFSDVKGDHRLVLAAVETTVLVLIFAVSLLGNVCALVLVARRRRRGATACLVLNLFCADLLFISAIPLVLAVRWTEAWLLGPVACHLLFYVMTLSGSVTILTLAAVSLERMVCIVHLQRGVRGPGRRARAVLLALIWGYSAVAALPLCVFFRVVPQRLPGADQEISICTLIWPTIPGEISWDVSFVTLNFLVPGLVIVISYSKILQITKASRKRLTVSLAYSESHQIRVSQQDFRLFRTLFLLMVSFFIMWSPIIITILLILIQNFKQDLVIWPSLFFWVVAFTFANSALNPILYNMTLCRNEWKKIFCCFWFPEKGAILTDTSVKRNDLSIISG
Procedure: Human GPR120 in Calcium Flux Assay
These cells are first loaded with the Ca^+2 sensitive dye, Fluo-4 NW. Upon stimulation, intracellular released Ca^+2 can bind to the dye and alter its fluorescence intensity. This increase in fluorescence signal, and thus the flux in intracellular [Ca^2+], is detected and quantitated by fluorescence imaging using a FLIPR reader. The effect of the agonist is measured as a function of concentration and used to calculate an EC50 based upon a response curve.
In this procedure 4200 cells/well were employed.
A Human GPR120 clone (Genbank accession number NM_001195755.1) was placed into the pcDNA3.1 mammalian expression vector carrying the neomycin resistance gene. A stable mammalian cell was generated by placing the above clone into a HEK293 background. […] Cells were split 2 times a week to keep the cells in the log-phase growth. […]
The assay was performed on a FLIPR plate reader using the following parameters. Baseline was read for 10 seconds at 1 sec intervals. The program was set to transfer 10 μL of ligand from compound plate to cell plate after baseline reading. Aspiration was executed at: 10 μL/sec speed, 4.6 μL height, Dispensing was executed at: 30 μL/sec speed, 45 μL height. After compound addition, each well was read for 300 sec, with measurements collected at 1 sec intervals.
The kinetic data from the FLIPR was based upon a 5 minute window for data collection. The fluorescence of each sample well was used for individual calculations of a normalized RFU value, which was defined as maximum response minus the minimum response. The normalized fluorescence reading (RFU) was calculated as follows: RFU=Fmax−Fmin
The Fitting Equation was: Y=Bottom+(Top-Bottom)/(1+10^((Log EC50−X)*HillSlope)), where X is the log of the concentration and Y is the response.

human GPR40 = target: T2, human GPR40 (Homo sapiens, UniProt O14842); assay: GPR40 calcium flux assay, human GPR40; format: cell-based; conditions: HEK293 cells stably expressing GPR40; table does not say human or rat
T2 construct: expressed in transfected cells
Procedure: Compounds were tested in a calcium flux assay using transfected HEK293 cells stably expressing either human GPR40 or rat GPR40. Human GPR40 expressing cells were cultured in DMEM−High Glucose media supplemented with 10% fetal bovine serum, 1×L-Glutamine, 1×Penicillin/Streptomycin and 500 μg/mL G418. Rat GPR40 expressing cells were cultured in DMEM−High Glucose media supplemented with 10% fetal bovine serum and 1 μg/mL puromycin. Cells were plated into poly-D-lysine coated 384-well plates and cultured overnight in a 37° C. humidified tissue culture incubator under 5% CO2/[…] atmosphere.
On the day of the experiment, the culture media was replaced with assay buffer (HBSS, 20 mM HEPES, 0.1% BSA) and the cells incubated at 37° C. for 1 h. Calcium-sensitive fluorescent dye (Fluo 8 No-Wash Calcium Dye, ABD Bioquest) was then added and the cells incubated for another 30 min at 37° C. followed by 15 min at room temperature while protected from the light. The cell plate and a plate of diluted compounds of Formula (I) were loaded into a fluorescent plate reader that added compounds onto the cells while measuring the fluorescence intensity of each well. The plate reader recorded fluorescence intensity at 1 second intervals for 8 min and provided the data for analysis in an Excel format. EC50 values were calculated using Prism (GraphPad) software.

T2 sequence (O14842 whole entry): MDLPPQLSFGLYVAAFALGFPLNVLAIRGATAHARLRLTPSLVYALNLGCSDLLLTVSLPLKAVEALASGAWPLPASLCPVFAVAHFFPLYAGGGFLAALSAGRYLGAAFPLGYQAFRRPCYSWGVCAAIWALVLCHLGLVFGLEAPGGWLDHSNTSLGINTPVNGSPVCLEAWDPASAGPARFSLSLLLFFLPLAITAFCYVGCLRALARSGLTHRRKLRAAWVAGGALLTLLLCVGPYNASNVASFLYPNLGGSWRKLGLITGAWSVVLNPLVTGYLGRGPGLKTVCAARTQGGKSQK

| EC50 (Human GPR120 short form) | EC50 (human GPR40) | Structure (SMILES) |
| --- | --- | --- |
| 668 nM | > 5000 nM | O=C(O)CCc1cc(Cl)c(OCC2=C(c3ccc(F)cc3)CCC2)c(Cl)c1 [Compound 235, 3-[3,5-dichloro-4-[[2-(4-fluorophenyl)cyclopenten-1-yl]methoxy]phenyl]Propanoic Acid] |
| 2800 nM | 382 nM | O=C(O)CCc1ccc(OCC2=C(Cc3nccs3)CCC2)cc1C(F)(F)F [Compound 440, 3-[4-[[2-(thiazol-2-ylmethyl)cyclopenten-1-yl]methoxy]-2-(trifluoromethyl)phenyl]Propanoic Acid] |
| 1780 nM | 2140 nM | CC(C)CC1=C(COc2ccc(CCC(=O)O)cc2)CCCC1 [Compound 578, 3-[4-[(2-isobutylcyclohexen-1-yl)methoxy]phenyl]Propanoic Acid] |
| 304 nM | > 5000 nM | Cc1ccc(C2=C(COc3ccc(CCC(=O)O)cc3C)CCC2)o1 [Compound 211, 3-[3-methyl-4-[[2-(5-methyl-2-furyl)cyclopenten-1-yl]methoxy]phenyl]Propanoic Acid] |
| 291 nM | 420 nM | O=C(O)CCc1ccc(OCC2=C(c3ccc(Br)cc3)CC(F)(F)C2)cc1Cl [Compound 393, 3-[4-[[2-(4-bromophenyl)-4,4-difluoro-cyclopenten-1-yl]methoxy]-2-chloro-phenyl]Propanoic Acid] |
| > 5000 nM | 1010 nM | Cc1cc(OCC2=C(C3CCC(F)(F)CC3)CCC2)c(F)cc1CCC(=O)O [Compound 417, 3-[4-[[2-(4,4-difluorocyclohexyl)cyclopenten-1-yl]methoxy]-5-fluoro-2-methyl-phenyl]Propanoic Acid] |
| > 5000 nM | 153 nM | COc1ccc(C2=C(COc3ccc(CCC(=O)O)c(C(F)(F)F)c3)CCC2)c(C)c1 [Compound 287, 3-[4-[[2-(4-methoxy-2-methyl-phenyl)cyclopenten-1-yl]methoxy]-2-(trifluoromethyl)phenyl]Propanoic Acid] |
| 3060 nM | 388 nM | Cc1ccc(C2=C(COc3ccc(CCC(=O)O)c(C(F)(F)F)c3)CCC2)c(C)c1 [Compound 247, 3-[4-[[2-(2,4-dimethylphenyl)cyclopenten-1-yl]methoxy]-2-(trifluoromethyl)phenyl]Propanoic Acid] |
| > 5000 nM | 1300 nM | O=C(O)CCc1ccc(OCC2=C(C3CC4CCC3C4)CCCC2)cc1Cl (stereo not drawn) [Compound 593, 3-[2-chloro-4-[(2-norbornan-2-ylcyclohexen-1-yl)methoxy]phenyl]Propanoic Acid] |
| 328 nM | 108 nM | O=C(O)CCc1ccc(OCC2=C(c3ccc(Cl)cc3F)CCC2)cc1C(F)(F)F [Compound 285, 3-[4-[[2-(4-chloro-2-fluoro-phenyl)cyclopenten-1-yl]methoxy]-2-(trifluoromethyl)phenyl]Propanoic Acid] |
| 148 nM | 325 nM | O=C(O)CCc1ccc(OCC2=C(C3CCCC3)CCC(F)(F)C2)cc1Cl [Compound 607, 3-[2-chloro-4-[(2-cyclopentyl-5,5-difluoro-cyclohexen-1-yl)methoxy]phenyl]Propanoic Acid] |
| 1800 nM | > 10000 nM | Cc1c(CCC(=O)O)ccc(OCC2=C(C3CCC(F)(F)CC3)CCC2)c1C [Compound 413, 3-[4-[[2-(4,4-difluorocyclohexyl)cyclopenten-1-yl]methoxy]-2,3-dimethyl-phenyl]Propanoic Acid] |
| > 5000 nM | 125 nM | O=C(O)CCc1ccc(OCC2=C(CC3CCCCC3)CCC2)cc1C(F)(F)F [Compound 369, 3-[4-[[2-(cyclohexylmethyl)cyclopenten-1-yl]methoxy]-2-(trifluoromethyl)phenyl]Propanoic Acid] |
| 255 nM | 188 nM | O=C(O)CCc1ccc(OCC2=C(C3CCCC3)CCC2)cc1 [Compound 395, 3-[4-[(2-cyclopentylcyclopenten-1-yl)methoxy]phenyl]Propanoic Acid] |
| 304 nM | 311 nM | O=C(O)CCc1ccc(OCC2=C(c3ccc(F)cc3)CC(F)(F)C2)cc1Cl [Compound 401, 3-[2-chloro-4-[[4,4-difluoro-2-(4-fluorophenyl)cyclopenten-1-yl]methoxy]phenyl]Propanoic Acid] |
| > 5000 nM | 171 nM | O=C(O)CCc1ccc(OCC2=C(C3CCOCC3)CCC2)cc1Cl [Compound 418, 3-[2-chloro-4-[(2-tetrahydropyran-4-ylcyclopenten-1-yl)methoxy]phenyl]Propanoic Acid] |
| 1380 nM | 1100 nM | Cc1ccc(F)c(C2=C(COc3ccc(CCC(=O)O)c(Cl)c3)CCC2)c1 [Compound 343, 3-[2-chloro-4-[[2-(2-fluoro-5-methyl-phenyl)cyclopenten-1-yl]methoxy]phenyl]Propanoic Acid] |
| 192 nM | 247 nM | Cc1ccc(C2=C(COc3ccc(CCC(=O)O)c(C(F)(F)F)c3)CCC2)cc1F [Compound 282, 3-[4-[[2-(3-fluoro-4-methyl-phenyl)cyclopenten-1-yl]methoxy]-2-(trifluoromethyl)phenyl]Propanoic Acid] |
| > 5000 nM | 133 nM | O=C(O)CCc1ccc(OCC2=C(C3CCC(F)(F)CC3)CCC2)cc1Cl [Compound 411, 3-[2-chloro-4-[[2-(4,4-difluorocyclohexyl)cyclopenten-1-yl]methoxy]phenyl]Propanoic Acid] |
| 1140 nM | > 10000 nM | CC1CCC(c2ccccc2)=C1COc1ccc(CCC(=O)O)cc1 (stereo not drawn) [Compound 366, 3-[4-[(5-methyl-2-phenyl-cyclopenten-1-yl)methoxy]phenyl]Propanoic Acid] |
| 1200 nM | 24 nM | O=C(O)CCc1ccc(OCC2=C(C3CCC3)CCCC2)cc1Cl [Compound 600, 3-[2-chloro-4-[(2-cyclobutylcyclohexen-1-yl)methoxy]phenyl]Propanoic Acid] |
| 2900 nM | 245 nM | Cc1cc(OCC2=C(c3ccc(Cl)cc3C)CCC2)c(F)cc1CCC(=O)O [Compound 286, 3-[4-[[2-(4-chloro-2-methyl-phenyl)cyclopenten-1-yl]methoxy]-5-fluoro-2-methyl-phenyl]Propanoic Acid] |
| 3300 nM | 131 nM | O=C(O)CCc1ccc(OCC2=C(Cc3cccc(F)c3)CCC2)cc1C(F)(F)F [Compound 361, 3-[4-[[2-[(3-fluorophenyl)methyl]cyclopenten-1-yl]methoxy]-2-(trifluoromethyl)phenyl]Propanoic Acid] |
| 191 nM | 1300 nM | CC1CCC(c2ccc(Cl)cc2)=C1COc1ccc(CCC(=O)O)cc1 (stereo not drawn) [Compound 332, 3-[4-[[2-(4-chlorophenyl)-5-methyl-cyclopenten-1-yl]methoxy]phenyl]Propanoic Acid] |
| 520 nM | 137 nM | O=C(O)CCc1ccc(OCC2=C(c3cc(Cl)ccc3F)CCC2)cc1C(F)(F)F [Compound 344, 3-[4-[[2-(5-chloro-2-fluoro-phenyl)cyclopenten-1-yl]methoxy]-2-(trifluoromethyl)phenyl]Propanoic Acid] |
| 249 nM | 32 nM | O=C(O)CCc1ccc(OCC2=C(C3C=CCC3)CCC2)cc1Cl (stereo not drawn) [Compound 451, 3-[2-chloro-4-[(2-cyclopent-2-en-1-ylcyclopenten-1-yl)methoxy]phenyl]Propanoic Acid] |
| 1220 nM | 1570 nM | O=C(O)CCc1ccc(OCC2=C(c3ccccc3)CCC2)cc1Cl [Compound 259, 3-[2-chloro-4-[(2-phenylcyclopenten-1-yl)methoxy]phenyl]Propanoic Acid] |
